Values after ≈ are worked out from the molar mass of the structure shown.
What was measured:
Test in all cases: minimum inhibitory concentration (MIC), series dilution on Iso-Sensitest agar
Assay type in all cases: cell-based
Staph 25701 = details: 37° C., about 20 hours, about 10^4 colony-forming particles per point
Experimental: (§1) The minimum inhibitory concentrations (MIC) were determined by the series dilution method on Iso-Sensitest agar (Oxoid). A series of agar plates which contained concentration of the active compound which decreased by two-fold dilution in each case was prepared for each test substance. The agar plates were inoculated with a Multipoint inoculator (Denley). Overnight cultures of the pathogens which had been diluted beforehand such that each inoculation point contained about 10^4 colony-forming particles were used for the inoculation. The inoculated agar plates were incubated at 37° C. and the germ growth was read off alter about 20 hours. The MIC value (μg/ml) indicates the lowest concentration of active compound at which no growth was detectable with the naked eye.

Psdm. Bonn = details: 37° C., about 20 hours, about 10^4 colony-forming particles per point
Experimental: as §1

E. coli Neumann = details: Escherichia coli, 37° C., about 20 hours, about 10^4 colony-forming particles per point
Experimental: as §1

Staph 48N = details: 37° C., about 20 hours, about 10^4 colony-forming particles per point
Experimental: as §1

Staph 9TV = details: 37° C., about 20 hours, about 10^4 colony-forming particles per point
Experimental: as §1

Klebs. 57 USA = details: 37° C., about 20 hours, about 10^4 colony-forming particles per point
Experimental: as §1

Staph 133 = details: 37° C., about 20 hours, about 10^4 colony-forming particles per point
Experimental: as §1

Row | SMILES | MIC (Staph 25701) | MIC (Psdm. Bonn) | MIC (E. coli Neumann) | MIC (Staph 48N) | MIC (Staph 9TV) | MIC (Klebs. 57 USA) | MIC (Staph 133)
1 | CC(=O)NC[C@H]1CN(c2cc(Br)cs2)C(=O)O1 [Example 26] | 8 µg/mL (≈ 25.1 µM) | > 32 µg/mL | > 32 µg/mL | 8 µg/mL (≈ 25.1 µM) | 8 µg/mL (≈ 25.1 µM) | > 32 µg/mL | 8 µg/mL (≈ 25.1 µM)
2 | CC(=O)NC[C@H]1CN(c2ccc(-c3ccccc3)s2)C(=O)O1 [Example 42] | 4 µg/mL (≈ 12.6 µM) | > 32 µg/mL | > 32 µg/mL | 4 µg/mL (≈ 12.6 µM) | 2 µg/mL (≈ 6.32 µM) | > 32 µg/mL | 2 µg/mL (≈ 6.32 µM)
3 | CC(=O)NC[C@H]1CN(c2ccc(-c3ccc(F)cc3)s2)C(=O)O1 [Example 51] | 2 µg/mL (≈ 5.98 µM) | > 32 µg/mL | > 32 µg/mL | 2 µg/mL (≈ 5.98 µM) | 1 µg/mL (≈ 2.99 µM) | > 32 µg/mL | 4 µg/mL (≈ 12 µM)
4 | CC(=O)NC[C@H]1CN(c2ccc(-c3cccc(N)c3)s2)C(=O)O1 [Example 56] | 4 µg/mL (≈ 12.1 µM) | > 32 µg/mL | > 32 µg/mL | 4 µg/mL (≈ 12.1 µM) | 4 µg/mL (≈ 12.1 µM) | > 32 µg/mL | 8 µg/mL (≈ 24.1 µM)
5 | CC(=O)NC[C@H]1CN(c2cc(-c3cccc(C=O)c3)cs2)C(=O)O1 [Example 59] | 2 µg/mL (≈ 5.81 µM) | > 32 µg/mL | > 32 µg/mL | 2 µg/mL (≈ 5.81 µM) | 1 µg/mL (≈ 2.9 µM) | > 32 µg/mL | 4 µg/mL (≈ 11.6 µM)
6 | CC(=O)NC[C@H]1CN(c2cc(-c3ccc(C=O)cc3)cs2)C(=O)O1 [Example 60] | 8 µg/mL (≈ 23.2 µM) | > 32 µg/mL | > 32 µg/mL | 8 µg/mL (≈ 23.2 µM) | 8 µg/mL (≈ 23.2 µM) | > 32 µg/mL | 16 µg/mL (≈ 46.5 µM)
7 | CC(=O)NC[C@H]1CN(c2ccc(-c3ccc(CO)cc3)s2)C(=O)O1 [Example 101, (5S)-3-(2-[5-(4-hydroxymethyl)phenyl]thiophenyl)-5-acetylamino-methyl-oxazolidin-2-one] | 2 µg/mL (≈ 5.77 µM) | > 32 µg/mL | > 32 µg/mL | 2 µg/mL (≈ 5.77 µM) | 2 µg/mL (≈ 5.77 µM) | > 32 µg/mL | 2 µg/mL (≈ 5.77 µM)
8 | CC(=O)NC[C@H]1CN(c2ccc(-c3cccc(CO)c3)s2)C(=O)O1 [Example 102] | 8 µg/mL (≈ 23.1 µM) | > 32 µg/mL | > 32 µg/mL | 8 µg/mL (≈ 23.1 µM) | 8 µg/mL (≈ 23.1 µM) | > 32 µg/mL | 8 µg/mL (≈ 23.1 µM)

Results, then the molecule that gave them:

Row | MIC (Staph 25701) | MIC (Psdm. Bonn) | MIC (E. coli Neumann) | MIC (Staph 48N) | MIC (Staph 9TV) | MIC (Klebs. 57 USA) | MIC (Staph 133) | SMILES
9 | 1 µg/mL (≈ 2.71 µM) | > 32 µg/mL | > 32 µg/mL | 2 µg/mL (≈ 5.42 µM) | 2 µg/mL (≈ 5.42 µM) | > 32 µg/mL | 4 µg/mL (≈ 10.8 µM) | CC(=O)NC[C@H]1CN(c2cc3cc(Br)ccc3s2)C(=O)O1 [Example 22]
10 | 2 µg/mL (≈ 6.05 µM) | > 32 µg/mL | > 32 µg/mL | 2 µg/mL (≈ 6.05 µM) | 1 µg/mL (≈ 3.03 µM) | > 32 µg/mL | 2 µg/mL (≈ 6.05 µM) | CC(=O)NC[C@H]1CN(c2ccc(-c3ccc(C)cc3)s2)C(=O)O1 [Example 39, (5S)-3-{2[5-(4-Methylphenyl)]thiophenyl}-5-acetyl-aminomethyl-oxazolidin-2-one]
11 | 2 µg/mL (≈ 5.81 µM) | > 32 µg/mL | > 32 µg/mL | 4 µg/mL (≈ 11.6 µM) | 1 µg/mL (≈ 2.9 µM) | > 32 µg/mL | 2 µg/mL (≈ 5.81 µM) | CC(=O)NC[C@H]1CN(c2ccc(-c3ccccc3C=O)s2)C(=O)O1 [Example 40, (5S)-3-{2[5-(2-Formylphenyl)]thiophenyl}-5-acetylamino-methyl-oxazolidin-2-one]
12 | 2 µg/mL (≈ 5.71 µM) | > 32 µg/mL | > 32 µg/mL | 2 µg/mL (≈ 5.71 µM) | 2 µg/mL (≈ 5.71 µM) | > 32 µg/mL | 2 µg/mL (≈ 5.71 µM) | CC(=O)NC[C@H]1CN(c2ccc(-c3csc(C=O)c3)s2)C(=O)O1 [Example 41]
13 | 1 µg/mL (≈ 2.9 µM) | > 32 µg/mL | > 32 µg/mL | 1 µg/mL (≈ 2.9 µM) | 1 µg/mL (≈ 2.9 µM) | > 32 µg/mL | 1 µg/mL (≈ 2.9 µM) | CC(=O)NC[C@H]1CN(c2ccc(-c3cccc(C=O)c3)s2)C(=O)O1 [Example 43]
14 | 0.25 µg/mL (≈ 0.726 µM) | > 32 µg/mL | > 32 µg/mL | 0.25 µg/mL (≈ 0.726 µM) | 0.25 µg/mL (≈ 0.726 µM) | > 32 µg/mL | 0.25 µg/mL (≈ 0.726 µM) | CC(=O)NC[C@H]1CN(c2ccc(-c3ccc(C=O)cc3)s2)C(=O)O1 [Example 44]
15 | 2 µg/mL (≈ 5.58 µM) | > 32 µg/mL | > 32 µg/mL | 2 µg/mL (≈ 5.58 µM) | 0.5 µg/mL (≈ 1.4 µM) | > 32 µg/mL | 2 µg/mL (≈ 5.58 µM) | CC(=O)NC[C@H]1CN(c2ccc(-c3ccc(C(C)=O)cc3)s2)C(=O)O1 [Example 46]

Reference: US5698574A, “5-membered heteroaryl-oxazolidinones” (Bayer Aktiengesellschaft, priority 1994, dated 1997)
